Drawing on ChEMBL document CHEMBL1137877, “Synthesis and evaluation of 4-(1-aminoalkyl)-N-(4-pyridyl)cyclohexanecarboxamides as Rho kinase inhibitors and neurite outgrowth promoters” (2004), this text covers Activity for six compounds.

The experiment has as its system NG108-15. As to the kind of experiment: Mean percent neurite outgrowth (cells with neurites longer than cell body/total cells) was determined in NG108-15 cells after 4 hr incubation at 35 uM. Format: functional, Mus musculus x Rattus norvegicus.
Turning to `CCC[C@H](N)C1CCC(C(=O)Nc2ccncc2)CC1.Cl.Cl` (stereo partly specified), the Activity is listed as 23%.
Compound `CCCCCCCC[C@@H](N)C1CCC(C(=O)Nc2ccncc2)CC1.Cl.Cl` (stereo partly specified) returned an Activity of 0%.
Compound `C[C@@H](N)C1CCC(C(=O)Nc2ccncc2)CC1.Cl.Cl` (stereo partly specified) returned an Activity of 68%.
Turning to `C[C@@H](N)[C@H]1CC[C@H](C(=O)Nc2ccncc2)CC1.Cl.Cl`, the Activity was determined as 82%.
Next, `C[C@H](N)C1CCC(C(=O)Nc2ccncc2)CC1.Cl.Cl` (stereo partly specified): 70%; `CCC[C@@H](N)C1CCC(C(=O)Nc2ccncc2)CC1.Cl.Cl` (single isomer, unassigned; (+)): 48%.
